We go through eleven molecules from US20170022171A1, “2,5-DISUBSTITUTED CYCLOPENTANECARBOXYLIC ACIDS AND THEIR USE” (Bayer Pharma Aktiengesellschaft, priority 2014, published 2017).

Common to all, as to format: biochemical
Assay [1] addresses T1, MMP-1 (Homo sapiens, UniProt P03956).
T1 construct: purchased R&D Systems 901-MP
T1 sequence (P03956 100-469): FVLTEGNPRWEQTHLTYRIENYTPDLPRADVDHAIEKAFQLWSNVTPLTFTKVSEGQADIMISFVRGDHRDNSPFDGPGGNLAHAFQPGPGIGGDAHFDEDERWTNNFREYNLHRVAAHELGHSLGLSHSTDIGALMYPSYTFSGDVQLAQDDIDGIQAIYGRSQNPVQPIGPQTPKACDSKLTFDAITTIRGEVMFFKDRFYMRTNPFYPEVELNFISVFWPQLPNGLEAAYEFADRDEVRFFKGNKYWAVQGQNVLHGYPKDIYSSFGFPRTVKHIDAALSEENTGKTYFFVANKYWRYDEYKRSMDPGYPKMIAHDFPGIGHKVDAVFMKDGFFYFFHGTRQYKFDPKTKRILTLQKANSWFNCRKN
In words: In vitro MMP-1 inhibition test. The source says:
(§1) The MMP-mediated amidolytic cleavage of a suitable peptide substrate leads to an increase in fluorescent light here too. The signal intensity of the fluorescent light is directly proportional to the enzyme activity. The active concentration of a test compound at which half the enzyme is inhibited (50% signal intensity of the fluorescent light) is reported as the IC50 value.
(§2) Recombinant MMP-1 (from R&D Systems, 901-MP) is chemically activated in accordance with the manufacturer's instructions using APMA. 1 μl of the test compound to be analysed (as a solution in DMSO, suitable concentrations, for example, 1 nM to 30 μM) is pipetted into 24 μl of activated enzyme (final concentration, for example, 2 nM) in reaction buffer (50 mM Tris/HCl pH 7.5, 10 mM CaCl2, 150 mM NaCl, 0.05% Brij®-35) in a white 384-hole microtiter plate (MTP). The enzymatic reaction is started by adding the intramolecularly quenched Mca-Pro-Leu-Gly-Leu-Dpa(Dnp)-Ala-Arg-NH2 substrate (final concentration, for example, 10 μM; R&D Systems, ES-001), so as to result in a total test volume of 50 μl. The course of the MMP-1 reaction is measured by measuring the fluorescence intensity (excitation 320 nm, emission 410 nm) over a suitable period of time (for example over 120 min at a temperature of 32° C.).

The target in assay [2] is T2, MMP-3 (Homo sapiens, UniProt P08254).
T2 construct: purchased R&D Systems 513-MP
In words: In vitro MMP-3 inhibition test.
Description: as §1
as §2, with “MMP-3” for “MMP-1”, “513-MP)” for “901-MP)”, “Mca-Arg-Pro-Lys-Pro-Val-Glu-Nval-Trp-Arg-Lys(Dnp)-NH2” for “Mca-Pro-Leu-Gly-Leu-Dpa(Dnp)-Ala-Arg-NH2”, “ES-002),” for “ES-001),”, “50” for “50 μl.”

Assay [3] has as its target T3, MMP-7 (Homo sapiens, UniProt P09237).
T3 construct: purchased R&D Systems 907-MP
T3 sequence (P09237 95-267): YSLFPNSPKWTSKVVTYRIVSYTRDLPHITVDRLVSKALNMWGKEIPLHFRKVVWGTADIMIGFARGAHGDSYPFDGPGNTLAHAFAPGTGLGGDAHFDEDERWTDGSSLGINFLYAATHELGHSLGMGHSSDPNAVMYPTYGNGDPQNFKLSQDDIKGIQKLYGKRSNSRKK
Put plainly: In vitro MMP-7 inhibition test.
Description: as §1
as §2, with “Recombinant MMP-7” for “Recombinant MMP-1”, “Systems, 907-MP)” for “Systems, 901-MP)”, “example, 0.5” for “example, 2”, “[…]” for “50 μl.”, “the MMP-7” for “the MMP-1”

The target in assay [4] is T4, MMP-8 (Homo sapiens, UniProt P22894).
T4 construct: purchased R&D Systems 908-MP
Put plainly: In vitro MMP-8 inhibition test.
Description: as §1
as §2, with “Recombinant MMP-8” for “Recombinant MMP-1”, “Systems, 908-MP)” for “Systems, 901-MP)”, “example, 0.5” for “example, 2”, “the MMP-8” for “the MMP-1”

T4 sequence (P22894 101-467): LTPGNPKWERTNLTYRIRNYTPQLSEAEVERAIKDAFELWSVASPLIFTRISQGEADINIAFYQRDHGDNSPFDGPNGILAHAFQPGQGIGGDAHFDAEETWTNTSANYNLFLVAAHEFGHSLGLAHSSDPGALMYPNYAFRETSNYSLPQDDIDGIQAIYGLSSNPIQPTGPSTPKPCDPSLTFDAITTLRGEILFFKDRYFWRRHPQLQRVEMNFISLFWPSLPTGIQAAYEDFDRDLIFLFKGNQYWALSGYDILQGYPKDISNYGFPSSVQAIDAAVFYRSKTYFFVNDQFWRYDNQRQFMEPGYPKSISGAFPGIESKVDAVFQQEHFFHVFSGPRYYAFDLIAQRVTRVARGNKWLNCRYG
T2 sequence (P08254 100-477): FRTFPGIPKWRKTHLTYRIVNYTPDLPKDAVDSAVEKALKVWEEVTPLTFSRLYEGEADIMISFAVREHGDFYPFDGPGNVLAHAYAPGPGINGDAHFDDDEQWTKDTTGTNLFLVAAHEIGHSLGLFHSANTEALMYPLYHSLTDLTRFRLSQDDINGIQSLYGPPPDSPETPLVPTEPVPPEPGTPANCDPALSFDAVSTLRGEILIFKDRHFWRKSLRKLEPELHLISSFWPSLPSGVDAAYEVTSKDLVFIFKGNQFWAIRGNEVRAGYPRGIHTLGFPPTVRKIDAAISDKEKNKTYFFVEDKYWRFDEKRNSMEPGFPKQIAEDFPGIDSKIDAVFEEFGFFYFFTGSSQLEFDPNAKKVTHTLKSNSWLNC

The IC50 is the concentration that inhibits the measured activity by half. The low end stands for higher potency, the high end for lower potency. With `O=C(O)[C@H]1[C@H](Cn2nnc3ccccc3c2=O)CC[C@@H]1C(=O)c1ccc(OCC2CCCC2)cc1` (racemic) [Example 4, (+/−)-(1RS,2RS,5SR)-2-[4-(Cyclopentylmethoxy)benzoyl]-5-[(4-oxo-1,2,3-benzotriazin-3(4H)-yl)methyl]cyclopentanecarboxylic acid], the IC50 in assay [1] was found to be 28 µM; in assay [2], 1100 nM; in assay [3], 2200 nM; in assay [4], 14 nM.
On the same counts, the results for `O=C(O)[C@@H]1[C@@H](Cn2nnc3ccc(C(F)(F)F)cc3c2=O)CC[C@H]1C(=O)c1ccc(OCCC2CCCCC2)cc1` (single isomer, unassigned) [Example 52, (+)-(1RS,2RS,5SR)-2-[4-(2-Cyclohexylethoxy)benzoyl]-5-{[4-oxo-6-(trifluoromethyl)-1,2,3-benzotriazin-3(4H)-yl]methyl}cyclopentanecarboxylic acid] are 6.3 µM, 380 nM, 340 nM and 38 nM.
Regarding `O=C(O)[C@H]1[C@H](Cn2nnc3ccccc3c2=O)CC[C@@H]1C(=O)c1ccc(OCCC2CCCCC2)cc1` (racemic) [Example 5, (+/−)-(1RS,2RS,5SR)-2-[4-(2-Cyclohexylethoxy)benzoyl]-5-[(4-oxo-1,2,3-benzotriazin-3(4H)-yl)methyl]cyclopentanecarboxylic acid], the IC50 in assay [1] was more than 40 µM; in assay [2], 1500 nM; in assay [3], 2400 nM; in assay [4], 250 nM.
On the same counts, the results for `Cc1ccc2nnn(C[C@@H]3CC[C@H](C(=O)c4ccc(OCc5cccc(C(F)(F)F)c5)cc4)[C@H]3C(=O)O)c(=O)c2c1` (racemic) [Example 100, (+/−)-(1RS,2SR,5RS)-2-[(6-Methyl-4-oxo-1,2,3-benzotriazin-3(4H)-yl)methyl]-5-(4-{[3-(trifluoromethyl)benzyl]oxy}benzoyl)cyclopentanecarboxylic acid] are more than 40 µM, 1500 nM, 1000 nM and 43 nM.
On to `Cc1cccc(COc2ccc(C(=O)[C@@H]3CC[C@H](Cn4nnc5ccc(C)cc5c4=O)[C@H]3C(=O)O)cc2)c1` (single isomer, unassigned) [Example 98, (+)-(1RS,2RS,5SR)-2-{4-[(3-Methylbenzyl)oxy]benzoyl}-5-[(6-methyl-4-oxo-1,2,3-benzotriazin-3(4H)-yl)methyl]cyclopentanecarboxylic acid], for which the IC50 in assay [1] came out at 9.6 µM; in assay [2], 680 nM; in assay [3] it was 330 nM; in assay [4], 64 nM.
For `O=C(O)[C@@H]1[C@@H](Cn2nnc3ccc(C(F)(F)F)cc3c2=O)CC[C@H]1C(=O)c1ccc(OCc2cccc(C(F)(F)F)c2)cc1` (single isomer, unassigned) [Example 19, (+)-(1RS,2SR,5RS)-2-{[4-Oxo-6-(trifluoromethyl)-1,2,3-benzotriazin-3(4H)-yl]methyl}-5-(4-{[3-(trifluoromethyl)benzyl]oxy}benzoyl)cyclopentanecarboxylic acid], in that order: 37 µM, 3000 nM, 1600 nM and 130 nM.
Take `Cc1ccc2nnn(C[C@H]3CC[C@@H](C(=O)c4ccc(OCC5CCCCC5)cc4)[C@@H]3C(=O)O)c(=O)c2c1` (single isomer, unassigned) [Example 117, (+)-(1RS,2RS,5SR)-2-[4-(Cyclohexylmethoxy)benzoyl]-5-[(6-methyl-4-oxo-1,2,3-benzotriazin-3(4H)-yl)methyl]cyclopentanecarboxylic acid]: the IC50 in assay [1] was found to be 4.4 µM; in assay [2] it was 110 nM; in assay [3], 100 nM; in assay [4], 4 nM.
For “(+)-(1RS,2RS,5SR)-2-{4-[(3,4-Dichlorobenzyl)oxy]benzoyl}-5-{[4-oxo-6-(trifluoromethyl)-1,2,3-benzotriazin-3(4H)-yl]methyl}cyclopentanecarboxylic acid [Example 28]”, the IC50 in assay [1] amounted to 17 µM; in assay [2], 250 nM; in assay [3], 300 nM; in assay [4] it was 43 nM.
For `Cc1ccc2nnn(C[C@H]3CC[C@@H](C(=O)c4ccc(OCc5cccc(Cl)c5)cc4)[C@@H]3C(=O)O)c(=O)c2c1` (single isomer, unassigned) [Example 104, (+)-(1RS,2RS,5SR)-2-{4-[(3-Chlorobenzyl)oxy]benzoyl}-5-[(6-methyl-4-oxo-1,2,3-benzotriazin-3(4H)-yl)methyl]cyclopentanecarboxylic acid], in that order: 3.9 µM, 260 nM, 270 nM and 31 nM.
In the case of `O=C(O)[C@H]1[C@H](Cn2nnc3ccc(C(F)(F)F)cc3c2=O)CC[C@@H]1C(=O)c1ccc(SCc2ccc(Cl)c(Cl)c2)cc1` (racemic) [Example 79, (+/−)-(1RS,2RS,5SR)-2-{4-[(3,4-Dichlorobenzyl)sulphanyl]benzoyl}-5-{[4-oxo-6-(trifluoromethyl)-1,2,3-benzotriazin-3(4H)-yl]methyl}cyclopentanecarboxylic acid], the IC50 in assay [1] was 15 µM; in assay [2], 800 nM; in assay [3], 1300 nM; in assay [4], 280 nM.
With `COC(=O)Nc1cccc(COc2ccc(C(=O)[C@@H]3CC[C@H](Cn4nnc5ccc(C(F)(F)F)cc5c4=O)[C@H]3C(=O)O)cc2)c1` (stereo in doubt) [Example 31, (+)-(1RS,2RS,5SR)-2-[4-({3-[(Methoxycarbonyl)amino]benzyl}oxy)benzoyl]-5-{[4-oxo-6-(trifluoromethyl)-1,2,3-benzotriazin-3(4H)-yl]methyl}cyclopentanecarboxylic acid], the IC50 in assay [1] was determined as 5.4 µM; in assay [2] it was 280 nM; in assay [3] it was 79 nM; in assay [4], 9.1 nM.
